Source: US20230183643A1, “COMPOSITIONS AND METHODS FOR PRODUCING PLACENTAL CELLS” (Regents of the University of Minnesota, priority 2021, published 2023)
“Also recorded” adds a separate entry of the source.

What was measured:
Assay type in all cases: cell-based, human
[1] = test system: IMR-90-4 hiPSCs; test: Immunostaining for pluripotency and lineage-specific markers after treatment; conditions: for CDX2 protein expression (immunostaining): after 5 days incubation, 1 μM RA, 8 μM CHIR-99021, 1 μM SU6656 or RA+CHIR in UM or E6; for Keratin 8 expression (immunostaining): UM+1 μM RA or UM+1 μM SU6656
Method: For differentiation, 70% confluent stem cells were rinsed with DPBS (Gibco) and pre-warmed Accutase was added to the wells. Cells were then placed at 37° C. for 5-7 minutes. Following incubation, cells were removed from the well with a p1000 pipette. The cells in Accutase solution were then added to a conical tube containing an equal volume of fresh media and spun down at 200×g for 5 minutes. The cells were then resuspended and seeded on Matrigel-coated plates at 6,000 cells/cm^2 in TeSR-E8 or mTeSR Plus with 5 μM ROCK inhibitor (Y-27632, Stem Cell Tech). Cells were maintained in E8 or mTeSR Plus for two more days, and then the medium was changed to unconditioned medium (UM): […] RA and/or CHIR were excluded in control experiments (FIG. 1), as described. Cell culture media was changed daily for five days. The induced multipotent placental cells produced by this method are termed iMPC1 cells (also referred herein, as iMPC1-D5 cells). As described herein, the cells may alternatively be exposed to RA+CHIR for 3 or 4 days. For example, iMPC1-D3 and iMPC1-D4, may also be produced wherein the cells are exposed to RA+CHIR for 3 and 4 days, respectively. For immunocytochemistry analysis, cells were rinsed 2× with PBS and then fixed for 10 minutes with 4% paraformaldehyde (PFA) at room temperature. […] Primary antibodies (Table 1A) were diluted into PBSGT and incubated on cells overnight at 4° C. Cells were washed 3× in PBST for 15 minutes, and then secondary antibodies (Table 1B) were diluted 1:500 in PBSGT and incubated on the cells for 1 hour at room temperature. Following a 10-minute PBS wash, cells were incubated with a DAPI solution for 10 minutes. Another 10-minute PBS wash was performed before the cells were imaged on an EVOS microscope.

[2] = test system: IMR-90-4 hiPSCs; test: PCR and qRT-PCR of trophoblast cell marker transcripts and C19 miRNAs; conditions: for CDX2 transcript level (qRT-PCR) / GATA3 transcript level (qRT-PCR) / KLF4 transcript level (qRT-PCR) / KRT7 transcript level (qRT-PCR): 5 days of incubation, compared to UM alone (FIG. 10); for CDX2 mRNA transcript level (PCR / RT-PCR): after 5 days in UM with 1 μM RA, 8 μM CHIR, RA+CHIR or 1 μM SU6656
Method: For differentiation, 70% confluent stem cells were rinsed with DPBS (Gibco) and pre-warmed Accutase was added to the wells. Cells were then placed at 37° C. for 5-7 minutes. Following incubation, cells were removed from the well with a p1000 pipette. The cells in Accutase solution were then added to a conical tube containing an equal volume of fresh media and spun down at 200×g for 5 minutes. The cells were then resuspended and seeded on Matrigel-coated plates at 6,000 cells/cm^2 in TeSR-E8 or mTeSR Plus with 5 μM ROCK inhibitor (Y-27632, Stem Cell Tech). Cells were maintained in E8 or mTeSR Plus for two more days, and then the medium was changed to unconditioned medium (UM): […] RA and/or CHIR were excluded in control experiments (FIG. 1), as described. Cell culture media was changed daily for five days. The induced multipotent placental cells produced by this method are termed iMPC1 cells (also referred herein, as iMPC1-D5 cells). As described herein, the cells may alternatively be exposed to RA+CHIR for 3 or 4 days. For example, iMPC1-D3 and iMPC1-D4, may also be produced wherein the cells are exposed to RA+CHIR for 3 and 4 days, respectively. Cell pellets were collected and lysed using QiaShredder columns (Qiagen). RNA was isolated using the RNeasy Mini Kit (Qiagen) as the manufacturer recommends, including incubation with DNase I (RNAse-free DNase Set, Qiagen). Collected RNA was quantified using a NanoDrop. Reverse transcription was performed on 1000 ng RNA using the Omni script RT Kit (Qiagen). RNA with Oligo-dT primer (Life Tech) was denatured for 5 minutes at 65° C. before the remaining elements were added and incubated at 37° C. for 1 hour. Quantitative real time PCR (qRT-PCR) was performed using iTaq Universal SYBR Green Supermix (Bio Rad) as the manufacturer recommends. Primers (Table 2) were added at 250 nM each (forward and reverse). Analysis was performed on a Bio Rad CFX Connect Real-Time PCR system. GAPDH was used as a reference gene, and error was propagated using the […] method. PCR was performed identically as above through the reverse transcription step to generate cDNA. GoTaq Master Mix (Promega) was used for PCR per the manufacturer's instructions. Primers (Table 2) were added at […] each. PCR products were visualized on a 2% agarose gel containing SYBR Safe (Thermo Fisher) after electrophoresis at […] for 100 minutes. Gels were imaged using a ChemiDoc Touch Gel/Blot Reader (Bio Rad).

[3] = test system: IMR-90-4 hiPSCs; test: Flow cytometry of CDX2, Oct-4, GATA3 and Keratin 7 in hiPSCs differentiated with RA and/or CHIR; conditions: 5 days in UM, 1 μM RA with or without 8 μM CHIR
Method: For differentiation, 70% confluent stem cells were rinsed with DPBS (Gibco) and pre-warmed Accutase was added to the wells. Cells were then placed at 37° C. for 5-7 minutes. Following incubation, cells were removed from the well with a p1000 pipette. The cells in Accutase solution were then added to a conical tube containing an equal volume of fresh media and spun down at 200×g for 5 minutes. The cells were then resuspended and seeded on Matrigel-coated plates at 6,000 cells/cm^2 in TeSR-E8 or mTeSR Plus with 5 μM ROCK inhibitor (Y-27632, Stem Cell Tech). Cells were maintained in E8 or mTeSR Plus for two more days, and then the medium was changed to unconditioned medium (UM): DMEM/F12 with 20% Knockout serum replacement, MEM non-essential amino acids (1×), GlutaMAX (lx, Life Tech), and 0.1 mM β-mercaptoethanol (Sigma), containing 1 μM retinoic acid (RA, Sigma) and […] (Tocris). RA and/or CHIR were excluded in control experiments (FIG. 1), as described. Cell culture media was changed daily for five days. The induced multipotent placental cells produced by this method are termed iMPC1 cells (also referred herein, as iMPC1-D5 cells). […]
Cells were rinsed 2× with PBS and then pre-warmed Accutase was added to the wells. […] Plots shown are representative of a single independent replicate, but medians and standard deviations were calculated from three independent replicates.

| Structure (SMILES) | CDX2 protein expression (immunostaining) [1] | CDX2 transcript level (qRT-PCR) [2] | GATA3 transcript level (qRT-PCR) [2] | KLF4 transcript level (qRT-PCR) [2] | KRT7 transcript level (qRT-PCR) [2] | CDX2 mRNA transcript level (PCR / RT-PCR) [2] | Keratin 8 expression (immunostaining) ([1]; 5 days) | interquartile range (IQR) of CDX2 expression (flow cytometry) [3] | CDX2 median expression intensity (flow cytometry) ([3]; p<0.001) | Keratin 18 (KRT18) expression (immunostaining) ([1]; 1 μM RA in UM, 5 days) | Oct-4 expression (immunostaining) ([1]; 1 μM RA in UM, 5 days) | lowest concentration tested which resulted in CDX2 expression ([1]; 5 days in UM, 0.1, 1 and 10 μM RA tested) [µM] |
| --- | --- | --- | --- | --- | --- | --- | --- | --- | --- | --- | --- | --- |
| Cc1cnc(-c2cnc(NCCNc3ccc(C#N)cn3)nc2-c2ccc(Cl)cc2Cl)[nH]1 [CHIR-99021, 6-[[2-[[4-(2,4-Dichlorophenyl)-5-(5-methyl-1H-imidazol-2-yl)-2-pyrimidinyl]amino]ethyl]amino]-3-pyridinecarbonitrile] | unable to induce CDX2 protein expression | upregulating | compromised the expression | compromised the expression | compromised the expression | low levels of CDX2 expression | – | – | – | – | – | – |
| CN(C)S(=O)(=O)c1ccc2c(c1)/C(=C/c1cc3c([nH]1)CCCC3)C(=O)N2 [SU6656] | restricted to the RA condition | – | – | – | – | restricted to the RA condition | expressed in all conditions | – | – | – | – | – |
| CC1=C(/C=C/C(C)=C/C=C/C(C)=C/C(=O)O)C(C)(C)CCC1 [RA, retinoic acid] | gained expression; also recorded: restricted to the RA condition | upregulation | upregulation | upregulation | upregulation | heightened expression; also recorded: restricted to the RA condition | expressed in all conditions | 119 | 1348±42 | gained expression | lost expression | 1 |
